Measurements as given in patent publication US9296704B2, “Substituted pyrimidines as protein kinase inhibitors” (CELGENE AVILOMICS RESEARCH, INC., priority 2007, dated 2016).
pIC50: −log10 of the molar value.

Experiments:
[1] = biological target: T1, EGFR (WT) (Homo sapiens, UniProt P00533); experiment: Omnia continuous-read kinase assay, EGFR (WT); format: biochemical; conditions: read-out: EGFR inhibtion
T1 construct: purchased Invitrogen PV3872
How it was run: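 Enzyme pre-incubated 30 min at 27 °C with compound, then ATP/Y12-Sox peptide added; fluorescence (ex360/em485) read continuously 60 min in 20 mM Tris pH 7.5, 5 mM MgCl2, 0.2 mM DTT. WT: 5 nM enzyme, […]; T790M/L858R: 3 nM enzyme, […]. IC50 from initial velocities, variable-slope fit.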

[2] = biological target: BTK (Homo sapiens, UniProt Q06187); experiment: Omnia assay for potency against BTK; format: biochemical; conditions: read-out: BTK Inhibition
Sequence of BTK (Q06187 whole entry): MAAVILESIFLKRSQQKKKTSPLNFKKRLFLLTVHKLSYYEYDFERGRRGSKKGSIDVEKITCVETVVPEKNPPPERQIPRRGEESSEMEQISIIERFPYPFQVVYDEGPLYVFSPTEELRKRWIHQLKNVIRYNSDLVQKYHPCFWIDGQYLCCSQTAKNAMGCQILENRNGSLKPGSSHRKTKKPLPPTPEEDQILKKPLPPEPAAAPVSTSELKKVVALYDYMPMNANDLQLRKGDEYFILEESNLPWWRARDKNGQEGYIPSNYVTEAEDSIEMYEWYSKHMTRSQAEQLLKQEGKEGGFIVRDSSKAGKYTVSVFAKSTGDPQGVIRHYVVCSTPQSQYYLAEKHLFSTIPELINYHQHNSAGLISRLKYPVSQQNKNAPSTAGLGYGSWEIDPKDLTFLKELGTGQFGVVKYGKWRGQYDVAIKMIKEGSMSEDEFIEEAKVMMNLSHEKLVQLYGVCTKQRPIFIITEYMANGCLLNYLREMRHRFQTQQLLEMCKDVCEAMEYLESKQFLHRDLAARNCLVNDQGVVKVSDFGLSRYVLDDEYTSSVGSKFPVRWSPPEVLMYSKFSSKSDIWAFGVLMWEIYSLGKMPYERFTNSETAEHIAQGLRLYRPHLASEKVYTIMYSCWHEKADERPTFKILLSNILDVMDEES
How it was run: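 BTK (5 nM) was pre-incubated 30 min at 27° C with serially diluted compounds in Tris pH 7.5/MgCl2 buffer, then started with […] and Y5-Sox peptide 10 mM (ATP KMapp ~36 mM). Fluorescence (ex360/em485) was read continuously over 60 min. IC50 came from initial velocities using a variable-slope fit.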

[3] = biological target: T2, JAK3 (Homo sapiens, UniProt P52333); experiment: Omnia assay for potency against JAK3; format: biochemical; conditions: read-out: JAK3 Inhibition
T2 sequence (P52333 1-1124): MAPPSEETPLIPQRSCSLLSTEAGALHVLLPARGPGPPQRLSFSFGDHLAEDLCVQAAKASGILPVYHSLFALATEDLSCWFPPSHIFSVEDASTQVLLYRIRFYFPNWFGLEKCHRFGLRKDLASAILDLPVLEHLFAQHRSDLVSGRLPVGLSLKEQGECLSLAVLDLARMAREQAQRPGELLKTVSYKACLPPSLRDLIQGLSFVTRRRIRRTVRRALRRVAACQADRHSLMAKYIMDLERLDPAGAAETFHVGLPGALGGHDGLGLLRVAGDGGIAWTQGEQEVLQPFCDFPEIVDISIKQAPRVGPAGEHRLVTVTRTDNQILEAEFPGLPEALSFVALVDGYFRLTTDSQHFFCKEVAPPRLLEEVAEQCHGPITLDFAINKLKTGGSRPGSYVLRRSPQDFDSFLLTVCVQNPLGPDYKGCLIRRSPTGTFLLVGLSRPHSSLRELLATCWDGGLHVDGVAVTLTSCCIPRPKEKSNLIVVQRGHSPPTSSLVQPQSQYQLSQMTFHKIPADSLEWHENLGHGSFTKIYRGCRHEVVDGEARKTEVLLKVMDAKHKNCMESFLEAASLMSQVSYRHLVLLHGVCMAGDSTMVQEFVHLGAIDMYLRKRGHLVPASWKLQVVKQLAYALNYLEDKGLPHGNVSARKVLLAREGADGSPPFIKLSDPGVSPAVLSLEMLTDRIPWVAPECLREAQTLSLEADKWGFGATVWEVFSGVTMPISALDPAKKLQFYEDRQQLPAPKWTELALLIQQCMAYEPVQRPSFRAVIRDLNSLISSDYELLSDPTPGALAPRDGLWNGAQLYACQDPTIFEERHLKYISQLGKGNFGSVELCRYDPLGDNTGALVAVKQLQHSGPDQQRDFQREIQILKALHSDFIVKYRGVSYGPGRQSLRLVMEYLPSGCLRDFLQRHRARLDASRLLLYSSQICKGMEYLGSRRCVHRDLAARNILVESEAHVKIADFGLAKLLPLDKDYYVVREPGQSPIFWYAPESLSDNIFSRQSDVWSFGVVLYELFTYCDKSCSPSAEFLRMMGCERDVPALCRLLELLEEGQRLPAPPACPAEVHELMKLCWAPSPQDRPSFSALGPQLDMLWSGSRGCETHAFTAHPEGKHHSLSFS
How it was run: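 Continuous-read Omnia kinase assay with 5 nM JAK3, 5 μM ATP (near apparent Km) and 5 μM Y12-Sox peptide in Tris pH 7.5/MgCl2 buffer; enzyme pre-incubated with compound 30 min at 27 °C. Fluorescence (ex360/em485) read over 60 min; initial velocities fitted against inhibitor concentration to give IC50.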

[4] = system: BTK signaling in Ramos cells; experiment: BTK Ramos cellular assay (PLCγ2 phosphorylation); format: cell-based; conditions: Homo sapiens; for pIC50: Ramos cells, PLCγ2 phosphorylation, read-out: BTK Inhibition

T1 sequence (P00533 25-1210): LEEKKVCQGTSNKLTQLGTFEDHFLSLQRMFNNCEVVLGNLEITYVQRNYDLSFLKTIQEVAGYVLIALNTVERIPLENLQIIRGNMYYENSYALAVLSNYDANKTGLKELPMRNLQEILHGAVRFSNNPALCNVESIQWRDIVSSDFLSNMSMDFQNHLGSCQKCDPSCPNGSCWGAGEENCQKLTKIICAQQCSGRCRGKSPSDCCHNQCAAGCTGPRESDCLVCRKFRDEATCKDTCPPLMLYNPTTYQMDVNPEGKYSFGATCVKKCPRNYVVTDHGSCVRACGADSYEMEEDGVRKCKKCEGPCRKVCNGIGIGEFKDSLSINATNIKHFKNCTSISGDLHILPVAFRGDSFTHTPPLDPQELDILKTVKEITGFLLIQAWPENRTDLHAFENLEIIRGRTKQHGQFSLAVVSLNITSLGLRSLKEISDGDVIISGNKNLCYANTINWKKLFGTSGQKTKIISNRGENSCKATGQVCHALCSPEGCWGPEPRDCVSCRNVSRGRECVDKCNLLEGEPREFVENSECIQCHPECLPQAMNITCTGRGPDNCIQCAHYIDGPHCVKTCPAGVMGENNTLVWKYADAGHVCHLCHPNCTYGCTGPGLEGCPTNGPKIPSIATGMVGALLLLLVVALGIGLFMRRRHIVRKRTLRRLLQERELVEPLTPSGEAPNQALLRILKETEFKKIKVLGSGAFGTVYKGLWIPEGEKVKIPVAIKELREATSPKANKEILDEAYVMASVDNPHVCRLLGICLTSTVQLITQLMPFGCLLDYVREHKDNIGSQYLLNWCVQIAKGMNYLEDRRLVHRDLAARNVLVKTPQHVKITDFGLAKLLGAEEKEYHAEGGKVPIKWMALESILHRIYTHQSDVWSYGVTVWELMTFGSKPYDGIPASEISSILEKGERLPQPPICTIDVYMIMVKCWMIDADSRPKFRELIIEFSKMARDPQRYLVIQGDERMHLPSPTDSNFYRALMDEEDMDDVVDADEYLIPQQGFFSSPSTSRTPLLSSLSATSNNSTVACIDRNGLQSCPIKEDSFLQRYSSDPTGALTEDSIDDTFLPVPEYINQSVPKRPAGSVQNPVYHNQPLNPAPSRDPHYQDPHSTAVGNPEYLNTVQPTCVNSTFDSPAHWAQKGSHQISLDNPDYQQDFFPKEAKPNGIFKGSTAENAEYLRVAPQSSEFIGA

SMILES | pIC50 [1] | pIC50 [2] | pIC50 [3] | pIC50 [4] | inhibition at 1 µM ([4]; Ramos, at 1 μM, 1 hour)
C=CC(=O)N(C)c1cccc(Nc2cc(Nc3ccc(Oc4ccccc4)cc3)ncn2)n1 [I-78, N-methyl-N-(6-(6-(4-phenoxyphenylamino)pyrimidin-4-ylamino)pyridin-2-yl)acrylamide] | ≥ 8.00 | ≥ 8.00 | ≥ 8.00 | ≥ 8.00 | –
CN(C)C/C=C/C(=O)N(C)c1cccc(Nc2cc(Nc3ccc(Oc4ccccc4)cc3)ncn2)n1 [I-79, (E)-4-(dimethylamino)-N-methyl-N-(6-(6-(4-phenoxyphenylamino)pyrimidin-4-ylamino)pyridine-2-yl)but-2-enamide] | ≥ 8.00 | ≥ 8.00 | ≥ 8.00 | ≥ 8.00 | –
C=CC(=O)Nc1cccc(Nc2cc(Nc3ccc(Oc4ccccc4)cc3)ncn2)c1 [I-13, N-{3-[6-(4-phenoxyphenylamino)-pyrimidin-4-ylamino]phenyl}-2 propenamide] | ≥ 8.00 | ≥ 8.00 | 6.00 to 7.00 | 7.00 to 8.00 | 85%
Cc1cccc(Oc2cc(Nc3cccc(NC(=O)/C=C/CN(C)C)n3)ncn2)c1 [I-81] | ≥ 8.00 | ≥ 8.00 | ≥ 8.00 | ≥ 8.00 | –

Now from value to compound, other results behind:

pIC50 [1] | pIC50 [2] | pIC50 [3] | pIC50 [4] | SMILES | inhibition at 1 µM ([4]; Ramos, at 1 μM, 1 hour)
≥ 8.00 | ≥ 8.00 | 6.00 to 7.00 | – | C=CC(=O)Nc1cccc(Nc2cc(Oc3ccc(Oc4ccccc4)cc3)ncn2)n1 [I-66] | –
≥ 8.00 | ≥ 8.00 | ≥ 8.00 | – | C=CC(=O)Nc1cccc(Nc2cc(Oc3cccc(C)c3)ncn2)n1 [I-65] | –
≥ 8.00 | ≥ 8.00 | 7.00 to 8.00 | ≥ 8.00 | C=CC(=O)Nc1cccc(Nc2cc(Nc3ccc(Oc4ccccc4)cc3)ncn2)n1 [I-63] | –
– | ≥ 8.00 | ≥ 8.00 | 7.00 to 8.00 | CN(C)C/C=C/C(=O)Nc1cccc(Nc2cc(Nc3ccc(Oc4ccccc4)cc3)ncn2)n1 [I-64, (E)-4-(dimethylamino)-N-(6-(6-(4-phenoxyphenylamino)pyrimidin-4-ylamino)pyridine-2-yl)but-2-enamide] | –
≥ 8.00 | 7.00 to 8.00 | ≥ 8.00 | – | C=CC(=O)Nc1cccc(Nc2cc(Nc3cccc(Br)c3)ncn2)c1 [I-1, N-{3-[6-(3-bromophenylamino)-pyrimidin-4-ylamino]-phenyl}-2-propenamide] | –
≥ 8.00 | ≥ 8.00 | ≥ 8.00 | – | C=CC(=O)Nc1cccc(Nc2cc(Nc3ccccc3)ncn2)n1 [I-94] | –
